Results as given in patent US6878269B2, “Device for body fluid purification and system for body fluid purification” (Kaneka Corporation, priority 1996, dated 2005).

Legend:
[1] = test system: β2-microglobulin or chemokines; test: Adsorbing ability of immobilized compounds of various log P values; assay type: binding; details: compound immobilized on carrier
Source text: In discovering compounds effective for adsorbing substances related to malady in body fluid, in particular, for adsorbing β2-microglobulin or chemokines, compounds having various log P values have been examined in a state of being immobilized.

[2] = octanol-water system, found value; cited from earlier work

Structure (SMILES)	adsorbing ability for β2-microglobulin or chemokines [1]	also measured
CCCCCCCCCCCCCCCCN [hexadecylamine]	further enhanced	–
CCCCN [n-butylamine]	–	log P [2]: 0.97
CCCCCCCCN [n-octylamine]	enhanced to a great extent	–
CCCCCCCCCCCCCCCCCCN [octadecylamine]	–	adsorbing ability for β2-microglobulin or chemokines (guessed) ([1]; guessed and not tested): equivalent to or better than that of hexadecylamine
